The record followed here is patent US11008308B2, “Quinazolinones as PARP14 inhibitors” (Ribon Therapeutics Inc., priority 2017, dated 2021).

Where a name gives a salt, the structure may show the parent alone.

Broadly, the IC50 is the point on the concentration scale where inhibition reaches its midpoint. A low value points to inhibition by little substance.

Assay [1] has as its target catalytic domain of human PARP14 (Homo sapiens (Human), UniProt Q460N5). The assay is described as follows: Enzymatic assay for inhibition of PARP14 (DELFIA, auto-modification by biotin-NAD). Format: biochemical. The settings on record: 50 nM PARP14, 3 μM biotin-NAD. Here is the method:
An N-terminal His-TEV fusion tag was used to purify the protein from cell lysates. The His-TEV tag was left on the protein for use in the enzymatic assay.
Enzymatic inhibition of PARP14 was measured using a dissociation-enhanced lanthanide fluorescence immunoassay (DELFIA) monitoring the auto-modification of PARP14 by biotinylated nicotinamide adenine dinucleotide (biotin-NAD). 1 μL of a dose response curve of each test compound was spotted in 384-well nickel-coated white microplates (Thermo) using a Mosquito (TTP Labtech). Reactions were performed in a 50 μL volume by adding 40 μL of PARP14 in assay buffer (20 mM HEPES pH==8, 100 mM NaCl, 0.1% bovine serum albumin, 2 mM DTT and 0.002%0 Tween20), incubating with test compound at 25° C. for 30 min, then adding 10 μL of biotin-NAD (Biolog). The final concentrations of PARP14 and biotin-NAD are 50 nM and 3 μM, respectively. Reactions proceeded at 25° C. for 3 h, then were quenched with 5 μL of 10 mM unmodified nicotinamide adenine dinucleotide (Sigma-Aldrich). […] After a 5 min incubation the plate was read on an Envision platereader equipped with a LANCE/DELFIA top mirror (Perkin Elmer) using excitation of 340 nm and emission of 615 nm to measure the amount of Europium present in each well, informing on the amount of biotin-NAD that was transferred in the automodification reaction. […]

Another assay has as its system 4T1 cells. The assay is described as follows: Tumor growth in 4T1 murine syngeneic model. Format: in vivo, mouse (BALB/c). As to conditions: 4T1 orthotopic, female BALB/c mice, 500 mg/kg PO BID, study terminated on D20. From the text: FIGS. 3A and 4A illustrate that a PARP14 inhibitor (Example 235) reduces tumor growth in the murine syngeneic models (A) 4T1 and (B) LL/2. For the 4T1 study (FIGS. 3A and 3B), female BALB/c mice were inoculated orthotopically in the mammary fat pad with 1×10^5 4T1 cells (ATCC, CRL-2539™) for tumor development. Seven days after tumor inoculation, 16 mice with tumor size ranging from 41-78 mm^3 (average tumor size 56 mm^3) were selected and assigned into 2 groups using stratified randomization with 8 mice in each group based upon their tumor volumes. The treatments were started from the next day post randomization (defined as randomization day DO) and were treated with vehicle (0.5% methylcellulose+0.2% Tween 80), or the compound of Example 235 (500 mg/kg PO BID*21 days). The tumor sizes were measured three times per week during the treatment. The entire study was terminated on D20.
(§1) Statistical significance, calculated using 2 way ANOVA multiple comparisons in which each treatment group was compared to vehicle control, is indicated by an asterisk. Statistics were performed on groups with less than 20% animal loss (D20 for 4T1, D17 for LL/2). Survival benefit was determined for the LL/2 study (FIG. 4B). Individual mice were euthanized once they reached the termination endpoint (TV>2000 mm3). […]

The test system of the next assay is LL/2 cells. The assay is described as follows: Tumor growth and survival in LL/2 murine syngeneic model. Format: in vivo, mouse (C57BL/6). As to conditions: LL/2 subcutaneous, female C57BL/6 mice, 500 mg/kg PO BID, study terminated on D21.
Excerpt: For the LL/2 study (FIGS. 4A-4C), female C57BL/6 mice were inoculated subcutaneously in the right flank with 5×10^5 LL/2 cells (ATCC, CRL-1642™) for tumor development. Five days after tumor inoculation, 16 mice with tumor size ranging from 37-72 mm^3 (average tumor size 51 mm^3) were selected and assigned into 2 groups using stratified randomization with 8 mice in each group based upon their tumor volumes. The treatments were started from the next day post randomization (defined as randomization day DO) and were treated with vehicle (0.5% methylcellulose+0.2% Tween 80), or the compound of Example 235 (500 mg/kg PO BID*21 days). The tumor sizes were measured three times per week during the treatment. The entire study was terminated on D21.
as §1, with “mm3). The time from treatment initiation to termination was deemed as its survival time and plotted in a Kaplan-Meier survival curve format. Mice remaining at study end date of 21 days were euthanized at day 21 after treatment initiation.” for “mm3).”

Sequence of catalytic domain of human PARP14 (Q460N5 1611-1801): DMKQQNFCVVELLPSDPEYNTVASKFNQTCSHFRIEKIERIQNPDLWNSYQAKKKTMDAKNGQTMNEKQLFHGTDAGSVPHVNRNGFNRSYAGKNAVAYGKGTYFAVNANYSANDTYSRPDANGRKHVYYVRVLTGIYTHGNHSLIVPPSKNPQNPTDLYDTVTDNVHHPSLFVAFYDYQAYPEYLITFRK

Take `O=c1[nH]c(CSC2CCOCC2)nc2cc(N[C@H]3CCC[C@@H]3F)cc(F)c12` (racemic) [Example 305]: in assay [1], the IC50 is below 1 µM. Consider `Cc1cccc2c(=O)[nH]c(CS[C@@H]3CCC[C@H](CN(C)C)C3)nc12` (relative stereo) [Example 72, 2-((((cis)-3-((Dimethylamino)methyl)cyclohexyl)thio)methyl)-8-methyl quinazolin-4(3H)-one Trifluoroacetate], for which, in assay [1], the IC50 was above 10 µM. For `O=c1[nH]c(CS[C@H]2CC[C@H](O)CC2)nc2cc(OCC3CC3)cc(F)c12` [Example 235, 7-(Cyclopropylmethoxy)-5-fluoro-2-(((trans-4-hydroxycyclohexyl)thio)methyl)quinazolin-4(3H)-one], the “Tumor growth inhibition versus vehicle group” value in the assay on 4T1 cells came out at 31%; in the assay on LL/2 cells, 63%.
